Laboratory results: ChEMBL document CHEMBL1201862, “PubChem BioAssay data set” (2004)
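Tested at 5 concentrations; 48 h exposure; 96-well plates; endpoints linearly interpolated, else capped at highest concentration. GI50: concentration for 50% inhibition of growth.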 Active and inactive are the calls of the source. Cut-off read from the data, not from the text of the source: active = GI50 up to about 1.1 µM and inactive = higher.

Assays:
Experiment in all cases: inhibition of tumour cell growth, NCI panel, 48 h
A498 = test system: A498
COLO 205 = test system: COLO 205
HT-29 = test system: HT-29
Hs-578T = test system: Hs-578T
KM12 = test system: KM12
M14 = test system: M14
MDA-MB-435 = test system: MDA-MB-435
NCI-H226 = test system: NCI-H226
NCI/ADR-RES = test system: NCI/ADR-RES
OVCAR-8 = test system: OVCAR-8
SF-268 = test system: SF-268
SF-539 = test system: SF-539
SK-OV-3 = test system: SK-OV-3
SR = test system: SR
SW-620 = test system: SW-620
UACC-257 = test system: UACC-257
UACC-62 = test system: UACC-62
K562 = test system: K562
T47D = test system: T47D

Measured: GI50

O=c1[nH]c2ccc(CC(=S)N3CCOCC3)cc2o1
inactive: A498 > 100 µM | COLO 205 > 100 µM | HT-29 > 100 µM | Hs-578T > 100 µM | KM12 > 100 µM | M14 > 100 µM | MDA-MB-435 > 100 µM | NCI-H226 > 100 µM | NCI/ADR-RES > 100 µM | OVCAR-8 > 100 µM | SF-268 > 100 µM | SF-539 > 100 µM | SK-OV-3 > 100 µM | SR 56.6 µM | SW-620 > 100 µM | UACC-257 > 100 µM | UACC-62 > 100 µM

O=S(=O)(c1ccc(/N=C2\NC(c3ccc(O)cc3)(c3ccccc3O)c3ccccc32)cc1)c1ccc(/N=C2/NC(c3ccc(O)cc3)(c3ccccc3O)c3ccccc32)cc1 (stereo not drawn)
inactive: A498 11.9 µM | COLO 205 3.56 µM | HT-29 3.09 µM | Hs-578T 3.4 µM | K562 3.52 µM | KM12 2.48 µM | M14 3.87 µM | NCI-H226 2.5 µM | NCI/ADR-RES 24.7 µM | OVCAR-8 3.33 µM | SF-268 3.38 µM | SF-539 2.75 µM | SK-OV-3 9.82 µM | SR 5.38 µM | T47D 2.25 µM | UACC-257 5.02 µM | UACC-62 3.85 µM

O=C(Cc1ccccc1)NNc1nc(NNC(=O)c2ccncc2)nc(Nc2ccc(Cl)cc2)n1
inactive: COLO 205 > 10 µM | Hs-578T > 10 µM | K562 > 10 µM | KM12 > 10 µM | M14 > 10 µM | NCI/ADR-RES 5.85 µM | OVCAR-8 > 10 µM | SF-268 > 10 µM | SF-539 > 10 µM | SK-OV-3 > 10 µM | SR > 10 µM | SW-620 > 10 µM | T47D > 10 µM | UACC-257 > 10 µM | UACC-62 9.68 µM

CC(=O)N1c2ccccc2C2=CC3C4C(=O)N(c5ccccc5)C(=O)C4C21C1C(=O)N(c2ccccc2)C(=O)C31 (stereo not drawn)
inactive: A498 74.5 µM | COLO 205 59.7 µM | HT-29 36.9 µM | K562 15.1 µM | KM12 35.6 µM | OVCAR-8 23.1 µM | SF-268 17.3 µM | SF-539 2.61 µM | SK-OV-3 23.1 µM | SR 32.5 µM | SW-620 31.2 µM | UACC-257 13.8 µM | UACC-62 30.6 µM

CCOC(=O)N1CCC2(CC1)C[C@](C)(C(C)=O)C(C)O2 (stereo partly drawn)
inactive: A498 > 100 µM | COLO 205 > 100 µM | HT-29 > 100 µM | Hs-578T > 100 µM | K562 > 100 µM | KM12 > 100 µM | M14 > 100 µM | MDA-MB-435 > 100 µM | NCI-H226 > 100 µM | NCI/ADR-RES > 100 µM | OVCAR-8 > 100 µM | SF-268 > 100 µM | SF-539 > 100 µM | SK-OV-3 > 100 µM | SR > 100 µM | SW-620 > 100 µM | UACC-257 > 100 µM | UACC-62 > 100 µM

CCOC(=O)c1c(C)nc2c3ccccc3c(C#N)c(C)n12
inactive: A498 > 100 µM | Hs-578T 32.9 µM | K562 > 100 µM | KM12 > 100 µM | MDA-MB-435 > 100 µM | NCI-H226 > 100 µM | NCI/ADR-RES 80.4 µM | OVCAR-8 49.1 µM | SF-539 > 100 µM | SK-OV-3 21.2 µM | SR 33.9 µM | SW-620 > 100 µM | UACC-257 > 100 µM | UACC-62 > 100 µM

CSC1(CC(=O)N2CCCCC2)C(=O)Nc2ccccc21 (stereo not drawn)
inactive: A498 > 100 µM | COLO 205 > 100 µM | HT-29 > 100 µM | Hs-578T > 100 µM | K562 > 100 µM | KM12 > 100 µM | M14 > 100 µM | MDA-MB-435 > 100 µM | NCI-H226 > 100 µM | NCI/ADR-RES > 100 µM | SF-268 > 100 µM | SF-539 > 100 µM | SK-OV-3 > 100 µM | SW-620 > 100 µM | T47D > 100 µM | UACC-257 > 100 µM | UACC-62 > 100 µM

Cc1c(C#N)c2ccccc2c2nc3ccccc3n12
inactive: A498 > 100 µM | Hs-578T 63 µM | K562 > 100 µM | KM12 > 100 µM | MDA-MB-435 > 100 µM | NCI-H226 > 100 µM | NCI/ADR-RES > 100 µM | OVCAR-8 > 100 µM | SF-539 39 µM | SK-OV-3 98.9 µM | SR > 10 µM | SW-620 81.3 µM | UACC-257 > 100 µM | UACC-62 > 100 µM

CSC(SC)=C1C(=O)N(c2ccccc2)N=C1C
inactive: A498 29.4 µM | COLO 205 19.9 µM | HT-29 35.8 µM | Hs-578T 88.1 µM | K562 27.1 µM | KM12 41.1 µM | M14 20.6 µM | NCI-H226 30.3 µM | NCI/ADR-RES 31.2 µM | OVCAR-8 33.8 µM | SF-268 61.1 µM | SF-539 36.7 µM | SK-OV-3 29.2 µM | SW-620 32 µM | UACC-257 27.4 µM | UACC-62 27 µM

Oc1nc(S)nc2c1C(c1ccc(Cl)cc1)c1c(O)nc(S)nc1O2
inactive: A498 > 100 µM | COLO 205 > 100 µM | HT-29 > 100 µM | Hs-578T > 100 µM | K562 > 100 µM | KM12 > 100 µM | M14 > 100 µM | MDA-MB-435 > 100 µM | NCI-H226 > 100 µM | NCI/ADR-RES > 100 µM | OVCAR-8 > 100 µM | SF-268 25.7 µM | SW-620 > 100 µM | UACC-257 > 100 µM | UACC-62 > 100 µM

N/C(=N\c1ccc(Cl)cc1)NS(=O)(=O)c1cccc2nsnc12
inactive: A498 15.6 µM | HT-29 55.6 µM | Hs-578T 20.9 µM | K562 36.6 µM | KM12 34.3 µM | M14 27.9 µM | NCI-H226 68.7 µM | NCI/ADR-RES 31.3 µM | OVCAR-8 27.6 µM | SF-268 26.8 µM | SF-539 37.3 µM | SK-OV-3 74.8 µM | SR 33 µM | SW-620 66.1 µM | T47D 39.4 µM | UACC-257 13.9 µM | UACC-62 17 µM

CCOC(=O)c1cc2c(C(=O)c3ccc([N+](=O)[O-])cc3)c(C(C)=O)ccc2[nH]1
inactive: A498 50.5 µM | COLO 205 > 100 µM | HT-29 > 100 µM | Hs-578T 9.84 µM | K562 26.7 µM | KM12 > 100 µM | M14 > 100 µM | MDA-MB-435 7.66 µM | NCI-H226 51.4 µM | SF-268 8.3 µM | SF-539 17.8 µM | SK-OV-3 9.06 µM | SR > 100 µM | SW-620 > 100 µM | T47D 29.9 µM | UACC-257 > 100 µM | UACC-62 > 100 µM

CCCCCCc1cc2cc(C(=O)Nc3ccccc3)c(=N)oc2cc1O
inactive: A498 26.2 µM | COLO 205 38.4 µM | HT-29 3.28 µM | Hs-578T 3.21 µM | KM12 2.51 µM | M14 3.6 µM | MDA-MB-435 3.53 µM | NCI-H226 > 25.6 µM | NCI/ADR-RES 3.27 µM | OVCAR-8 3.93 µM | SF-268 4.85 µM | SF-539 4.49 µM | SK-OV-3 3.34 µM | SW-620 3.97 µM | T47D 2.33 µM | UACC-257 4.63 µM | UACC-62 2.26 µM

CN(C)CCn1nc(N)c2nc3cc(C(F)(F)F)ccc3nc21
inactive: A498 > 100 µM | COLO 205 27.7 µM | HT-29 > 100 µM | Hs-578T 88.7 µM | K562 > 100 µM | KM12 > 100 µM | M14 > 100 µM | MDA-MB-435 > 100 µM | NCI-H226 2.49 µM | NCI/ADR-RES > 100 µM | OVCAR-8 88.3 µM | SF-268 94.6 µM | SK-OV-3 > 100 µM | SR > 100 µM | SW-620 81.1 µM | UACC-257 > 100 µM | UACC-62 > 100 µM

CSc1nc(Nc2cccc(C(F)(F)F)c2)c2c(N)nn(C)c2n1
inactive: A498 48 µM | COLO 205 > 100 µM | HT-29 51.9 µM | Hs-578T > 100 µM | K562 84.9 µM | KM12 > 100 µM | M14 76 µM | MDA-MB-435 > 100 µM | NCI-H226 > 100 µM | NCI/ADR-RES 85.3 µM | OVCAR-8 > 100 µM | SF-268 > 100 µM | SK-OV-3 > 100 µM | SW-620 > 100 µM | T47D 71.8 µM | UACC-257 > 100 µM | UACC-62 > 100 µM

Cc1cc(C)nc(NC(=O)c2ccc(Br)s2)c1
inactive: A498 30.5 µM | COLO 205 10.6 µM | HT-29 > 100 µM | K562 > 100 µM | KM12 > 100 µM | M14 21.3 µM | MDA-MB-435 79.1 µM | NCI-H226 > 100 µM | NCI/ADR-RES > 100 µM | OVCAR-8 > 100 µM | SF-268 > 100 µM | SF-539 56.9 µM | SK-OV-3 > 100 µM | SR > 100 µM | SW-620 > 100 µM | T47D 31.9 µM | UACC-257 > 100 µM | UACC-62 95.3 µM

Cn1c(S)nnc1CNc1ccc(-c2nnc(S)n2C)cc1
inactive: COLO 205 > 100 µM | HT-29 > 100 µM | K562 > 100 µM | KM12 > 100 µM | M14 > 100 µM | MDA-MB-435 > 100 µM | NCI-H226 > 100 µM | NCI/ADR-RES > 100 µM | OVCAR-8 > 100 µM | SF-268 > 100 µM | SF-539 > 100 µM | SK-OV-3 > 100 µM | SW-620 > 100 µM | UACC-257 > 100 µM
